Columns and labels:
ProT3 = target: T1, ProT3 (Arabidopsis thaliana, UniProt Q9SJP9); assay: 3H-proline uptake and two-electrode voltage clamp, Xenopus laevis oocytes; format: cell-based; details: uptake: 0.5 uM 3H-L-proline, labelled compound, pH 5.0, 30 min; currents: 5 mM L-proline, pH 5.0, -60 mV
T1 sequence (Q9SJP9 1-436): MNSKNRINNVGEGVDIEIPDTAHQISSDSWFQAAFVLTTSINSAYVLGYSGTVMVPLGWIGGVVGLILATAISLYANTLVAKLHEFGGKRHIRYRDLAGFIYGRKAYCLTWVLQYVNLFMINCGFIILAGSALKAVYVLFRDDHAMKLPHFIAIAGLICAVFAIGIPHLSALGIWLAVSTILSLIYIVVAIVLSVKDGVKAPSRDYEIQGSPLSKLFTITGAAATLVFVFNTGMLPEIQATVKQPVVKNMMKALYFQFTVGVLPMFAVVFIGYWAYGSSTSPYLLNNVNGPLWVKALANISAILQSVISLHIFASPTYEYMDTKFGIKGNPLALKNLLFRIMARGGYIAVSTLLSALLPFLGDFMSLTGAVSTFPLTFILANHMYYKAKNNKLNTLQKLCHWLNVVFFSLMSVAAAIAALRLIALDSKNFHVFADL

ProT2 = target: T2, ProT2 (Arabidopsis thaliana, UniProt P92962); assay: as above; format: cell-based; details: uptake: 0.5 uM 3H-L-proline, labelled compound, pH 5.0, 30 min; currents: 5 mM L-proline, pH 5.0, -60 mV
T2 sequence (P92962 1-439): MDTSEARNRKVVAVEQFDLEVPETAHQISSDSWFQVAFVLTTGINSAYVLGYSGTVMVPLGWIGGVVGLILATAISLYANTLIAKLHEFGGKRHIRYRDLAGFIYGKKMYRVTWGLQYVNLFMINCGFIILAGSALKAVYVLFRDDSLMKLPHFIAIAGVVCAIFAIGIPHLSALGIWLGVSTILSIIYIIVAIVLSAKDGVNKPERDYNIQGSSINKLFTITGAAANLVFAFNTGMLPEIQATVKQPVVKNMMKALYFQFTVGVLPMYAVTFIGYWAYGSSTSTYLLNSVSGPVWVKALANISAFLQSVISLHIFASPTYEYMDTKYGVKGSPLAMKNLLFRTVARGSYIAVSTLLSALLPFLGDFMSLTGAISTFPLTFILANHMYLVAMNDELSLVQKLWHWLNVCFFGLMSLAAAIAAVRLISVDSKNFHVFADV

With O=C(O)[C@@H]1CCCN1 [L-proline] the “3H-proline uptake and two-electrode voltage clamp, Xenopus laevis oocytes” value (ProT3) was “Oocytes expressing ProT2 or ProT3 can import ^3H-proline into the cells from external buffer” and the “3H-proline uptake and two-electrode voltage clamp, Xenopus laevis oocytes” value (ProT2) was “Oocytes expressing ProT2 or ProT3 can import ^3H-proline into the cells from external buffer”.

— PMC12667995 (bioRxiv, 2025)
